In this test the test system is SW480 cells. As to the kind of experiment: Viability of SW480 cells in co-culture with CEA-specific CAR-T cells (CellTiter-Blue). In kind it is cell-based, human. Particulars: 10 μM AR-C, 48 hours (FIG. 20). Here is the method:
FIG. 20. Effects of P2RY2 agonist and P2RY2 antagonist on cancer cell viability in T cell-cancer cell co-cultures. T cells transduced with a CEA-specific CAR (CAR-T) were co-cultured with genetically edited SW480 cells for 48 hours in the absence or presence of 40 μM ATP, 20 μM ATPγS, 10 μM Diquafosol, 5 μM Denufosol and 10 μM AR-C 118925XX (AR-C). Control cells: SW480 cells transduced with non-targeting sgRNA and Cas9 (gNT); P2RY2 deficient cells: SW480 cells transduced with P2RY2-targeting sgRNA and Cas9 (gP2RY2-3, gP2RY2-4); B7-H3 (CD276) deficient cells: SW480 cells transduced with B7-H3-targeting sgRNA and Cas9 (gCD276-1); P2RY2 and B7-H3 double deficient cells: SW480 cells transduced with P2RY2-targeting sgRNA, B7-H3-targeting sgRNA, and Cas9 (gCD276-1 gP2RY2-3 DKO, gCD276-1 gP2RY2-4 DKO); P2RY2 overexpression cells: SW480 cells transduced with the open reading frame of P2RY2 (P2RY2-OE); B7-H3 overexpression cells: SW480 cells transduced with the open reading frame of CD276 (CD276-OE). […] Normalized cell viability of the SW480 cells was determined by the CellTiter-Blue® Cell Viability (Promega) assay after co-culture with CEA CAR-T cells. The end-point cell viability was normalized to SW480 cells, as measured using the CellTiter-Blue® Cell Viability (Promega) assay, in cultures without T cells. […]
A general note: Alamar Blue is a resazurin reagent that responds to reducing activity.

`Cc1ccc2c(c1)C=Cc1cc(C)ccc1C2c1cn(Cc2ccc(C(=O)Nc3nn[nH]n3)o2)c(=O)[nH]c1=S` [AR-C 118925XX]: the tumor cell viability result is recorded as “reduced”.

(Values after patent publication US20250281610A1, “P2RY2 ACTIVITY MODULATORS” (Deutsches Krebsforschungszentrum Stiftung des öffentlichen …, priority 2022, published 2025).)
